Several values for one entry are separate records, joined by “and”; a condition that tells them apart may be missing. Equal entries are not always repeated. Where two headings read alike, the source gives them in different places. Blank lines part the entries; values can stand above or below the molecule they belong to.
Columns and labels:
[1] = Dynamic PET imaging in normal rat brain; type: in vivo
Description: (§1) Small animal PET/CT imaging was performed on a Siemens Inveon small-animal multimodality PET/CT system (Preclinical Solutions; Siemens Healthcare Molecular Imaging, Knoxville, Tenn.). For each rat, ^18F-P3BZA (7.4 MBq, 200 μCi) was administrated through tail vein.
To assess the in vivo kinetics of ^18F-P3BZA in normal rat brain, dynamic PET imaging (10×1 minute, 10×2 minute, 2×5 minute, 3×10 minute; total of 25 frames) was initiated immediately after administration of the probe and terminated 70 minute later on normal rats (n=4).
CT scan (632 slices at 206 μm) was performed immediately after PET imaging for both photon attenuation correction and image co-registration with PET image data for anatomical information. PET Images were reconstructed with a 2-dimensional ordered-subsets expectation maximization algorithm (OSEM 2D). ROIs were drawn in bilateral striatum using the Inveon Research Workspace software. The average radioactivity concentration in the ROIs was obtained from the mean pixel values within the ROIs volume. […] The results were then divided by the injected dose to obtain an image ROI-derived % ID/g, and the TAC was then calculated and obtained.

pRPE cells [2] = assay: In vitro cell uptake of ^18F-P3BZA in pRPE cells; type: cell-based; conditions: for uptake of ^18F-P3BZA in pRPE cells: without L-tyrosine
Description: (§2) pRPE (generation 3, 5×10^5) or control ARPE-19 cells were plated in a 12-well plate pretreated with or without L-tyrosine (2 mM) for 24 h. They were incubated with 74 kBq (2 μCi)/well of ^18F-P3BZA at 37° C. for 15, 30, 60, and 120 minute. The cells were washed three times with chilled PBS and lysed with 500 μL of 0.1 M NaOH. The cell lysates were then collected and the radioactivity of the lysates was measured with a γ counter (Perkin-Elmer, MA, USA). The cell uptake was expressed as the percentage of total applied radioactivity. All experiments were performed with triplicate samples. Similarly, uptake of ^18F-P3BZA at 30 minute incubation was determined in pRPE cells at different passages (pRPE-P3, pRPE-P5 and pRPE-P8) and control ARPE19 cells, with or without L-tyrosine pretreatment.

MCF-7-TYR = conditions: cited from earlier work
[3] = tested on: gelatin microcarrier-bound pRPE cells; assay: Ex vivo autoradiography of rat brain sections; type: in vivo; conditions: after static PET/CT
Excerpt: The sacrificed rat brains were removed and embedded in optimum cutting temperature (O.C.T.) compound (Tissue-Tek, Sakura, USA). Subsequently, thick axial blocks (12 μm) were cut using a cryostat microtome HM500 (Microm, HM 500 M, Heidelberg, Germany). The sections were mounted on microscope slides (Fisherbrand Superfrost Plus microscope slides, Fisherbrand Superfrost Plus Microscope Slides, Vernon Hills, Ill., USA). The representative coronal sections through the striatum (including visible injection sites) were used for autoradiography immediately or preserved in −80° C. for other postmortem analysis.
After static PET/CT imaging, frozen brain sections were prepared immediately for autoradiography. The sections were air-dried for 10 minute, and then exposed to a radioactivity sensitive storage phosphor screen (Perkin-Elmer, USA) for 24 h at 4° C. The imaging plates were analyzed using a Typhoon 9410 variable mode imager (Amersham Biosciences, Salt Lake City, Utah, USA), and the image data were visualized and processed by Image J (image processing and analysis software in Java).

[4] = tested on: gelatin microcarrier-bound ARPE-19 cells (ARPE-19-GMs); assay: Static PET/CT of intrastriatal implanted ARPE-19-GMs, 2 days after implantation; type: in vivo, rat
Description: (§3) Female Wistar rats (Charles Rivers Laboratory, Wilmington, Mass., USA) weighing 176-200 g were used in this study. All animal work was conducted in accordance with the Administrative Panel on Laboratory Animal Care at Stanford University. The implantation procedure was performed following the surgical procedures described in a previous report^36. Animals were anesthetized using isofluorane and were implanted at left striatum with RPE-GMs using the following (flat-skull) coordinates: anterior posterior (AP) −0.4; medial lateral (ML) ±3.5; dorsal ventral (DV) −5.0. The control GMs-alone were implanted on the contralateral side of the striatum and performed using the same procedure. Before the implantation procedure, solutions contained RPE cells (melanotic pRPE or amelanotic ARPE-19, 12,000˜15,000 cells in 10 μL) were drawn into a sterile 50 μL Hamilton syringe (Hamilton Company, Reno, Nev.).
(§4) Small animal PET/CT imaging was performed on a Siemens Inveon small-animal multimodality PET/CT system (Preclinical Solutions; Siemens Healthcare Molecular Imaging, Knoxville, Tenn.). For each rat, ^18F-P3BZA (7.4 MBq, 200 μCi) was administrated through tail vein. […]

pRPE-GMs = assay: Longitudinal PET/CT after implantation of pRPE-GMs; type: in vivo, rat
Description: as §1
To evaluate the potential of ^18F-P3BZA for monitoring the survival and function of RPE cells implanted, longitudinal PET/CT scans were acquired at day 2, 9 and 16 after cell implantation of pRPE-GMs in the left and GMs as control in right striatum in normal rats (n=12). PET/CT imaging started at 1 h after tail vein injection of ^18F-P3BZA Immediately after PET/CT scan at each time point (day 2, 9 and 16), four rats were sacrificed and the brain slices were prepared for immunohistochemistry and Fontana-Masson staining.

[5] = tested on: gelatin microcarrier-bound pRPE cells (pRPE-GMs); assay: Static PET/CT of intrastriatal implanted pRPE-GMs, 2 days after implantation; type: in vivo, rat
Description: as §3, §4

B16F10 = conditions: cited from earlier work
MCF-7 cells = conditions: cited from earlier work
ARPE-19 cells = assay: In vitro cell uptake of ^18F-P3BZA in control ARPE-19 cells; type: cell-based, human
Description: as §2

[6] = tested on: implantation site (striatum); conditions: cited from earlier work
pRPE cells [7] = assay: Melanin quantification analysis in pRPE cells; type: cell-based, porcine; conditions: 2 mM L-tyrosine pre-treatment; from 14.34±0.48 untreated
Description: In vitro measurement of melanin content was performed for pRPE and ARPE-19 cells in parallel with the ^18F-P3BZA cell uptake assay according to methods reported previously with slight modifications^35. The cells were harvested after pretreatment with or without 2 mM L-tyrosine for 24 h and washed with PBS, then they were incubated overnight in 500 μL of 1 N NaOH at room temperature. The solution was pipetted repeatedly to homogenize the extracts. The concentration of total protein was determined using a microBCA protein assay kit (Pierce Biotechnology) and then the concentration of samples was adjusted to 0.4 μg/μL. Extracts (100 μL) were added into 96-well plates in triplicate. The relative melanin content of samples was determined by measuring their absorbance at 405 nm using a plate reader (TECAN, Research Triangle Park, N.C.). Results were expressed as absorbance of 405 nm per mg protein (A 405 nm/mg protein).

[8] = after implantation of the RPE cells
[9] = before implantation of the RPE cells

- uptake in rat brain ([1]; 2 min after injection (peak)): 7.61±0.30 % ID/g
- uptake in rat brain ([1]; 28 min after injection): 3.54±0.21 % ID/g
- uptake in rat brain ([1]; 60 min after injection): 1.04±0.37 % ID/g
Structure (SMILES): CCN(CC)CCNC(=O)c1ccc([18F])cn1 [^18F-P3BZA, N-(2-(diethylamino)ethyl)-^18F-5-fluoropicolinamide]
- blood-brain barrier passage ([1]; PET images, normal rat): could rapidly cross the blood-brain barrier
- uptake of ^18F-P3BZA in L-tyrosine treated pRPE cells (pRPE cells [2]; 2 mM L-tyrosine pre-treatment, 30 minute incubation): 39.07±1.65%
- uptake of ^18F-P3BZA in pRPE cells (pRPE cells [2]; 60 minutes incubation): 9.09%±0.31 % of applied activity
- uptake of ^18F-P3BZA in pRPE cells (pRPE cells [2]; 120 minutes incubation): 8.61%±0.47 % of applied activity
- fold uptake in passage 3 pRPE cells vs control amelanotic ARPE-19 cells (pRPE cells [2]; in vitro): 9 fold
- increase in uptake in pRPE cells after tyrosine treatment vs nontreatment groups (pRPE cells [2]; multiple time points, FIG. 2A): three- to fourfold higher
- uptake of ^18F-P3BZA in pRPE cells (pRPE cells [2]; pRPE passage 3, 30 minutes incubation): 10.72±0.38 % of applied activity and 10.72%±0.38 % of applied activity and 10.71%±0.38 % of applied activity
- increase of uptake after tyrosine treatment (pRPE cells [2]; pRPE-P3): 48.8%
- decreasing rate of cell uptake per passage (pRPE cells [2]; pRPE-P3, P5, P8): −1.45 % of applied activity per passage
- increase of uptake after tyrosine treatment (pRPE cells [2]; pRPE-P5): 37.8%
- increase of uptake after tyrosine treatment (pRPE cells [2]; pRPE-P8): 31.9%
- uptake of ^18F-P3BZA in pRPE-P5 cells (pRPE cells [2]; passage 5, 30 minute incubation): 6.25%±0.59 % of applied activity
- uptake of ^18F-P3BZA in pRPE-P8 cells (pRPE cells [2]; passage 8, 30 minute incubation): 3.29%±0.15 % of applied activity
- cell uptake (MCF-7-TYR; 0.5 h incubation): 5.57±0.31%
- cell uptake (MCF-7-TYR; 1 h incubation): 7.14±0.18%
- autoradiography signal of pRPE-GMs transplant site vs ARPE-19-GMs or GMs alone sites [3]: significantly higher
- ARPE-19-GMs to gelatin microcarriers uptake ratio [4]: 1.21±0.36
- uptake in pRPE-GMs (pRPE-GMs; 2 days post-implantation): 3.39±0.18 % ID/g
- uptake in pRPE-GMs (pRPE-GMs; 9 days post-implantation): 2.49±0.41 % ID/g
- uptake in pRPE-GMs (pRPE-GMs; 16 days post-implantation): 1.20±0.13 % ID/g
- pRPE-GMs to adjacent normal striatum uptake ratio [5]: 3.19±0.53
- pRPE-GMs to control gelatin microcarriers uptake ratio [5]: 3.05±0.57
- cell uptake (B16F10; 0.5 h incubation): 6.85±0.08%
- cell uptake (B16F10; 1 h incubation): 8.55±0.24%
- cell uptake (MCF-7 cells; 0.5 h incubation): 0.25±0.05%
- cell uptake (MCF-7 cells; 1 h incubation): 0.32±0.07%
- uptake in control ARPE-19 cells at each time point (ARPE-19 cells; 15, 30, 60, 120 minutes): remained low
- uptake of ^18F-P3BZA in control ARPE-19 cells (ARPE-19 cells; 30 minute incubation): 1.31%±0.15 % of applied activity
- uptake in ARPE-19 cells before and after tyrosine treatment (ARPE-19 cells; with vs without L-tyrosine): no difference

Structure (SMILES): N[C@@H](Cc1cc(O)c(O)cc1[18F])C(=O)O [^18F-fluoro-L-DOPA]
- implantation site (striatum) to cortex uptake ratio [6, 8]: 1.48±0.07
- implantation site (striatum) to cortex uptake ratio [6, 9]: 1.35±0.10

Structure (SMILES): N[C@@H](Cc1ccc(O)cc1)C(=O)O [L-tyrosine]
- melanin content in pRPE cells (P3) (pRPE cells [7]): 21.34±1.73 A 405 per mg protein

Structure (SMILES): CCN1CCC[C@H]1CNC(=O)c1c(O)c(Cl)cc(Cl)c1O[11CH3] (racemic) [^11C-raclopride]
- implantation site (striatum) to cortex uptake ratio [6, 8]: 2.44±0.67
- implantation site (striatum) to cortex uptake ratio [6, 9]: 2.41±0.74
